Results published in ChEMBL document CHEMBL4507287, “Data for DCP probe MRL-650” (2021).

Tests used:
[1] = biological target: Dual specificity mitogen-activated protein kinase kinase 6 (Homo sapiens) (UniProt P52564); settings: Compound concentration 1000.0 nM
[2] = biological target: Tyrosine-protein kinase Lyn (Homo sapiens) (UniProt P07948); settings: Compound concentration 1000.0 nM
[3] = biological target: Serine/threonine-protein kinase OSR1 (Homo sapiens) (UniProt O95747); settings: Compound concentration 1000.0 nM
[4] = biological target: Cyclin-dependent kinase 16 (Homo sapiens) (UniProt Q00536); settings: Compound concentration 1000.0 nM
[5] = biological target: Interferon-induced, double-stranded RNA-activated protein kinase (Homo sapiens) (UniProt P19525); settings: Compound concentration 1000.0 nM
[6] = biological target: Ankyrin repeat and protein kinase domain-containing protein 1 (Homo sapiens) (UniProt Q8NFD2); settings: Compound concentration 1000.0 nM
[7] = biological target: Death-associated protein kinase 1 (Homo sapiens) (UniProt P53355); settings: Compound concentration 1000.0 nM
[8] = biological target: Serine/threonine-protein kinase 24 (Homo sapiens) (UniProt Q9Y6E0); settings: Compound concentration 1000.0 nM
[9] = biological target: Serine/threonine-protein kinase 25 (Homo sapiens) (UniProt O00506); settings: Compound concentration 1000.0 nM
[10] = system: Tyrosine-protein kinase ABL1 (Homo sapiens), P00519 [E255K]; settings: Compound concentration 1000.0 nM
[11] = biological target: Phosphorylase b kinase gamma catalytic chain, skeletal muscle/heart isoform (Homo sapiens) (UniProt Q16816); settings: Compound concentration 1000.0 nM
[12] = biological target: Mitogen-activated protein kinase 12 (Homo sapiens) (UniProt P53778); settings: Compound concentration 1000.0 nM
[13] = biological target: Fibroblast growth factor receptor 4 (Homo sapiens) (UniProt P22455); settings: Compound concentration 1000.0 nM
[14] = biological target: Mitogen-activated protein kinase 8 (Homo sapiens) (UniProt P45983); settings: Compound concentration 1000.0 nM
[15] = biological target: Tyrosine-protein kinase Tec (Homo sapiens) (UniProt P42680); settings: Compound concentration 1000.0 nM
Sequence of Tyrosine-protein kinase Tec (Homo sapiens) (P42680 whole entry): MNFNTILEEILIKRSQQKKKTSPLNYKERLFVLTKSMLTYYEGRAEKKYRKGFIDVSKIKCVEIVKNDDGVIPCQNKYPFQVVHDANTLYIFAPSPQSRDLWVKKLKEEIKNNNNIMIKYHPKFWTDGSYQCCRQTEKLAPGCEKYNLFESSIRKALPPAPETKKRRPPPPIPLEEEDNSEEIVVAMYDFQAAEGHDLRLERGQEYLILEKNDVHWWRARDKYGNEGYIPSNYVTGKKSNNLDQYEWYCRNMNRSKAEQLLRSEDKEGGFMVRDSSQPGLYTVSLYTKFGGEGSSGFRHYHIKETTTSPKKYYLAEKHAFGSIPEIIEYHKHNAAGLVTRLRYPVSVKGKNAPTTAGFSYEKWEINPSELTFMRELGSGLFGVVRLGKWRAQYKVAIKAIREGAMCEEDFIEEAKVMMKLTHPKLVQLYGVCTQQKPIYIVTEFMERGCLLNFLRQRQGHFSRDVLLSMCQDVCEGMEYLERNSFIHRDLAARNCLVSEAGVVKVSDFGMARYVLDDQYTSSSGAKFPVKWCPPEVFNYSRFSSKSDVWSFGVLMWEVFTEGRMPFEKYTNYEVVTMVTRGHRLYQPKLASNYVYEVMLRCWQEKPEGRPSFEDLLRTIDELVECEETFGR

[16] = biological target: Dual specificity protein kinase CLK4 (Homo sapiens) (UniProt Q9HAZ1); settings: Compound concentration 1000.0 nM
[17] = biological target: Mitogen-activated protein kinase kinase kinase 15 (Homo sapiens) (UniProt Q6ZN16); settings: Compound concentration 1000.0 nM
[18] = biological target: Serine/threonine-protein kinase pim-2 (Homo sapiens) (UniProt Q9P1W9); settings: Compound concentration 1000.0 nM
[19] = system: Mast/stem cell growth factor receptor Kit (Homo sapiens), P10721 [A829P]; settings: Compound concentration 1000.0 nM
[20] = biological target: Serine/threonine-protein kinase pim-1 (Homo sapiens) (UniProt P11309); settings: Compound concentration 1000.0 nM
[21] = system: ALK tyrosine kinase receptor (Homo sapiens), Q9UM73 [C1156Y]; settings: Compound concentration 1000.0 nM
[22] = biological target: Bone morphogenetic protein receptor type-2 (Homo sapiens) (UniProt Q13873); settings: Compound concentration 1000.0 nM
[23] = biological target: Tyrosine-protein kinase Yes (Homo sapiens) (UniProt P07947); settings: Compound concentration 1000.0 nM
[24] = biological target: Serine/threonine-protein kinase 32C (Homo sapiens) (UniProt Q86UX6); settings: Compound concentration 1000.0 nM
[25] = biological target: Cyclin-dependent kinase 9 (Homo sapiens) (UniProt P50750); settings: Compound concentration 1000.0 nM
[26] = biological target: Homeodomain-interacting protein kinase 1 (Homo sapiens) (UniProt Q86Z02); settings: Compound concentration 1000.0 nM
[27] = system: Mast/stem cell growth factor receptor Kit (Homo sapiens), P10721 [V559D,T670I]; settings: Compound concentration 1000.0 nM
[28] = system: Phosphatidylinositol 4,5-bisphosphate 3-kinase catalytic subunit alpha isoform (Homo sapiens), P42336 [E545K]; settings: Compound concentration 1000.0 nM
[29] = biological target: Serine/threonine-protein kinase STK11 (Homo sapiens) (UniProt Q15831); settings: Compound concentration 1000.0 nM
Sequence of Serine/threonine-protein kinase STK11 (Homo sapiens) (Q15831 whole entry, canonical isoform): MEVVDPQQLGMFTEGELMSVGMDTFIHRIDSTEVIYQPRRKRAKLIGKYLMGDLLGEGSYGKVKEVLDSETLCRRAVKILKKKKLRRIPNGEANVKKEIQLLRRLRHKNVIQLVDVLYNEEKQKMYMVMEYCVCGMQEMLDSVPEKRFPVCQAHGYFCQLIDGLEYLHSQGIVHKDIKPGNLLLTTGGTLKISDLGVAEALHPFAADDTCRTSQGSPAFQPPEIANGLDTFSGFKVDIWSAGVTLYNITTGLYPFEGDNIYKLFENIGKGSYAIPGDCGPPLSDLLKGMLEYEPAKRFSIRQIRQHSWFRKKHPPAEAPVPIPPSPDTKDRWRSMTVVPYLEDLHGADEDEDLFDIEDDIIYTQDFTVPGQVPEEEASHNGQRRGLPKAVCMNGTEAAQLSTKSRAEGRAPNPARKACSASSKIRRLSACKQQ

[30] = system: Phosphatidylinositol 4,5-bisphosphate 3-kinase catalytic subunit alpha isoform (Homo sapiens), P42336 [M1043I]; settings: Compound concentration 1000.0 nM
[31] = biological target: Phosphatidylinositol 4-phosphate 3-kinase C2 domain-containing subunit beta (Homo sapiens) (UniProt O00750); settings: Compound concentration 1000.0 nM
Sequence of Phosphatidylinositol 4-phosphate 3-kinase C2 domain-containing subunit beta (Homo sapiens) (O00750 whole entry, the tested form may be a part): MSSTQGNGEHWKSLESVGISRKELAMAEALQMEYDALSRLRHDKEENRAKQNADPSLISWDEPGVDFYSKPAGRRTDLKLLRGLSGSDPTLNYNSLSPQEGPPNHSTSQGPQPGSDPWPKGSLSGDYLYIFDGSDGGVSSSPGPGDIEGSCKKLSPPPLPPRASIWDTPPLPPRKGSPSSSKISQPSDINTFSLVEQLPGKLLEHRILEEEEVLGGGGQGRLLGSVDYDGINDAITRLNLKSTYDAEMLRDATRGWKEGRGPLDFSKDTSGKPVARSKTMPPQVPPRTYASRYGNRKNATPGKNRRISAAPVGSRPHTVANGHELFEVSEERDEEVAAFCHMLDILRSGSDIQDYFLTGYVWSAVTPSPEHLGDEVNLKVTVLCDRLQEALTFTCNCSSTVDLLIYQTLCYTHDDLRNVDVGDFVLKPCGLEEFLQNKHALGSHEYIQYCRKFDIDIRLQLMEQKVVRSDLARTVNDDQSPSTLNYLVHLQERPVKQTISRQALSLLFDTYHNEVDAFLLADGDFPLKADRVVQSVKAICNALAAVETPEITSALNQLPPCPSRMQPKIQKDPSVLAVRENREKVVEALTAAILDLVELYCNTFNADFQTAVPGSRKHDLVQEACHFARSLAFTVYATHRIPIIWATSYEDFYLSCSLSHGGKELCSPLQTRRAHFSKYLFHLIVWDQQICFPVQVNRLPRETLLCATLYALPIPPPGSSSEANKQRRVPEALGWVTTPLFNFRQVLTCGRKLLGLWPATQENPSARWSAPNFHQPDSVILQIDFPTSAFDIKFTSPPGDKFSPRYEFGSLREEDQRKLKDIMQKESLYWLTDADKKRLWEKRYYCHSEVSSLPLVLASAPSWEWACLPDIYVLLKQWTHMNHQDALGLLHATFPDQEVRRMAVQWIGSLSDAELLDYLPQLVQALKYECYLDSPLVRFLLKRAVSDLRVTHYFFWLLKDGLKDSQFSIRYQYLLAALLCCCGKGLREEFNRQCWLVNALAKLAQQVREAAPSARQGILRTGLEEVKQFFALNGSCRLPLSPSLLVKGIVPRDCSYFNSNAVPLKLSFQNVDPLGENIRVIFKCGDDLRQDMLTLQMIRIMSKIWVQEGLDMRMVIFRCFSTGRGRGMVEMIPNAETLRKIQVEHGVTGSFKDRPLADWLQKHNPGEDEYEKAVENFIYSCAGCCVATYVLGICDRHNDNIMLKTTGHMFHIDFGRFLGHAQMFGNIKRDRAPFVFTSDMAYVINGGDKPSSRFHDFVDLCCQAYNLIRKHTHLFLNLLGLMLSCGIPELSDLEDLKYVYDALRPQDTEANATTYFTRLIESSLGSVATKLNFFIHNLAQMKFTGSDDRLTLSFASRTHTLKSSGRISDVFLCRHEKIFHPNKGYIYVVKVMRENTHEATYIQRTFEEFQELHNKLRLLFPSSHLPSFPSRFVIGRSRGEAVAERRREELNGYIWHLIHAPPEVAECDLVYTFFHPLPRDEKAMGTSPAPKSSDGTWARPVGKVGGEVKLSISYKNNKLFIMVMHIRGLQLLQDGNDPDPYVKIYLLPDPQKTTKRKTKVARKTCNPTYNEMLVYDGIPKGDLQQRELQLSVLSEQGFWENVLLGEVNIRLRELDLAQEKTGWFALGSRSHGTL

[32] = biological target: Wee1-like protein kinase (Homo sapiens) (UniProt P30291); settings: Compound concentration 1000.0 nM
[33] = biological target: Serine/threonine-protein kinase ICK (Homo sapiens) (UniProt Q9UPZ9); settings: Compound concentration 1000.0 nM
[34] = biological target: Fibroblast growth factor receptor 3 (Homo sapiens) (UniProt P22607); settings: Compound concentration 1000.0 nM
[35] = biological target: Cyclin-dependent kinase-like 2 (Homo sapiens) (UniProt Q92772); settings: Compound concentration 1000.0 nM
[36] = biological target: Phosphatidylinositol 4,5-bisphosphate 3-kinase catalytic subunit beta isoform (Homo sapiens) (UniProt P42338); settings: Compound concentration 1000.0 nM
Sequence of Phosphatidylinositol 4,5-bisphosphate 3-kinase catalytic subunit beta isoform (Homo sapiens) (P42338 whole entry, looked up, canonical isoform): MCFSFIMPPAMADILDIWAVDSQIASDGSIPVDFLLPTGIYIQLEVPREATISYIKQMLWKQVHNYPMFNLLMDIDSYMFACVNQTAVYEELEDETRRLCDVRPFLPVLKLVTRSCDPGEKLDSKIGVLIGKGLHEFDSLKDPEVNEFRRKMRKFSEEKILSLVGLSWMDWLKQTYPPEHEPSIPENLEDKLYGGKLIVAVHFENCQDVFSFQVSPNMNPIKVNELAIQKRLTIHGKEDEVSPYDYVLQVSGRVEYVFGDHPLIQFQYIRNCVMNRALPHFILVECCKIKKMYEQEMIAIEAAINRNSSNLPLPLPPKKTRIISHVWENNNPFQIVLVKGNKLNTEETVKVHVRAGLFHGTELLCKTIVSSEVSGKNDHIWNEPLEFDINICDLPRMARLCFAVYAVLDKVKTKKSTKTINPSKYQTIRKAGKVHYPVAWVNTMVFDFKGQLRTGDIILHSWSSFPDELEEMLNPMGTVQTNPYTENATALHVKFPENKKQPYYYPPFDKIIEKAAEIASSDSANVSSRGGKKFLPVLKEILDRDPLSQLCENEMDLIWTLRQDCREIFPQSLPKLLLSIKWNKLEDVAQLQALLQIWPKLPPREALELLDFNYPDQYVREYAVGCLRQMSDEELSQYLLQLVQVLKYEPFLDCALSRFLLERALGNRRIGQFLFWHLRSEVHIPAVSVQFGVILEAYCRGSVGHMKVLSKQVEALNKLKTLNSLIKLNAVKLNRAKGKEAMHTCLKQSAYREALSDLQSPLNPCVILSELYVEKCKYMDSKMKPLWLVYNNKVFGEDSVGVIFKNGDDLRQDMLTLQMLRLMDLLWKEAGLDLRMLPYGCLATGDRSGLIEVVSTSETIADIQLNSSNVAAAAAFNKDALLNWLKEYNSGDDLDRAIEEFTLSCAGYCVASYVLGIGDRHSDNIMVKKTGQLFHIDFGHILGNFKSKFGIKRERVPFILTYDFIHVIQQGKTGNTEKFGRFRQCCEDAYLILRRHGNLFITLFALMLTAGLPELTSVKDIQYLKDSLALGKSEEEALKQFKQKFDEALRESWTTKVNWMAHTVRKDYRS

[37] = biological target: Serine/threonine-protein kinase 35 (Homo sapiens) (UniProt Q8TDR2); settings: Compound concentration 1000.0 nM
[38] = biological target: Muscarinic acetylcholine receptor M4 (Homo sapiens) (UniProt P08173); settings: Compound concentration 10.0 uM
[39] = biological target: Bone morphogenetic protein receptor type-1B (Homo sapiens) (UniProt O00238); settings: Compound concentration 1000.0 nM
Sequence of Bone morphogenetic protein receptor type-1B (Homo sapiens) (O00238 whole entry): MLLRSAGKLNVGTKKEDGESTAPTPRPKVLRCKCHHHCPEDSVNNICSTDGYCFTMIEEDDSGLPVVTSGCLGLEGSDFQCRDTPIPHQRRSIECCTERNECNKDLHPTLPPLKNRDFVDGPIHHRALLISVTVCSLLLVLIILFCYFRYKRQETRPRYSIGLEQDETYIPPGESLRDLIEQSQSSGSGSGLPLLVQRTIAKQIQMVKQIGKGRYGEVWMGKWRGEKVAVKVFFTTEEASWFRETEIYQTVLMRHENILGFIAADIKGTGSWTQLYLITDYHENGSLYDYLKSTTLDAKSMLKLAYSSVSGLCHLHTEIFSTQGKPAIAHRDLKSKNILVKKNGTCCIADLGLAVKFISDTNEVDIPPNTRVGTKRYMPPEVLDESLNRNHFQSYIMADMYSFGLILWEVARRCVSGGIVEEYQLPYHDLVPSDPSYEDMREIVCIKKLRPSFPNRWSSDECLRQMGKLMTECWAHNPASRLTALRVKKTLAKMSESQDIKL

[40] = biological target: Fibroblast growth factor receptor 2 (Homo sapiens) (UniProt P21802); settings: Compound concentration 1000.0 nM
[41] = biological target: Uncharacterized serine/threonine-protein kinase SBK3 (Homo sapiens) (UniProt P0C264); settings: Compound concentration 1000.0 nM
[42] = biological target: Homeodomain-interacting protein kinase 4 (Homo sapiens) (UniProt Q8NE63); settings: Compound concentration 1000.0 nM
[43] = biological target: Calcium/calmodulin-dependent protein kinase kinase 1 (Homo sapiens) (UniProt Q8N5S9); settings: Compound concentration 1000.0 nM
[44] = biological target: Proto-oncogene tyrosine-protein kinase Src (Homo sapiens) (UniProt P12931); settings: Compound concentration 1000.0 nM
Sequence of Proto-oncogene tyrosine-protein kinase Src (Homo sapiens) (P12931 2-536 limits assumed): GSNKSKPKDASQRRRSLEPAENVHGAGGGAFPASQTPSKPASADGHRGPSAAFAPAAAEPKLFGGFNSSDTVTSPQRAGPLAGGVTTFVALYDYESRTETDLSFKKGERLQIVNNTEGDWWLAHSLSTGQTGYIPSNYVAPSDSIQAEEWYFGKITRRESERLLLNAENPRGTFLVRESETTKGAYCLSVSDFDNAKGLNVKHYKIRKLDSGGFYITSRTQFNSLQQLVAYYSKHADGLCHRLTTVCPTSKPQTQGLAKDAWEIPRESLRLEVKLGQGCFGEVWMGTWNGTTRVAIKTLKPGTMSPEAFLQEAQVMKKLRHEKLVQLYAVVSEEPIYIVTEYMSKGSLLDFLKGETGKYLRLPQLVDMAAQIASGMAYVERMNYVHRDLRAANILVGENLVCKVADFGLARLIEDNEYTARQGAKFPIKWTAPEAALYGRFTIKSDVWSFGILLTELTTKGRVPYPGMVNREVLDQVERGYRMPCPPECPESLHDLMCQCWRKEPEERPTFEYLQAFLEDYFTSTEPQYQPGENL

[45] = biological target: cAMP-dependent protein kinase catalytic subunit alpha (Homo sapiens) (UniProt P17612); settings: Compound concentration 1000.0 nM

Question: How did the residual activity [1] turn out when `CC(=O)Nc1c(C(C)=O)c(=O)n(C)c2nc(-c3ccc(Cl)cc3Cl)c(-c3ccc(Cl)cc3)cc12` [NAPHTHYRIDINONE] was run?
Answer: 100%

Question: What about the residual activity [2] of the same molecule?
Answer: 100%

Question: And the residual activity [3]?
Answer: 93%

Question: What about the residual activity [4] of the same molecule?
Answer: 100%

Question: And the residual activity [5]?
Answer: 100%

Question: And the residual activity [6]?
Answer: 100%

Question: What about the residual activity [7] of the same molecule?
Answer: 100%

Question: And the residual activity [8]?
Answer: 100%

Question: And the residual activity [9]?
Answer: 100%

Question: What about the residual activity [10] of the same molecule?
Answer: 94%

Question: What about the residual activity [11] of the same molecule?
Answer: 100%

Question: And the residual activity [12]?
Answer: 100%

Question: What about the residual activity [13] of the same molecule?
Answer: 100%

Question: And the residual activity [14]?
Answer: 71%

Question: What about the residual activity [15] of the same molecule?
Answer: 100%

Question: And the residual activity [16]?
Answer: 100%

Question: What about the residual activity [17] of the same molecule?
Answer: 100%

Question: What about the residual activity [18] of the same molecule?
Answer: 100%

Question: And the residual activity [19]?
Answer: 100%

Question: And the residual activity [20]?
Answer: 100%

Question: What about the residual activity [21] of the same molecule?
Answer: 100%

Question: And the residual activity [22]?
Answer: 100%

Question: What about the residual activity [23] of the same molecule?
Answer: 100%

Question: And the residual activity [24]?
Answer: 100%

Question: And the residual activity [25]?
Answer: 100%

Question: And the residual activity [26]?
Answer: 99%

Question: And the residual activity [27]?
Answer: 100%

Question: And the residual activity [28]?
Answer: 79%

Question: And the residual activity [29]?
Answer: 43%

Question: And the residual activity [30]?
Answer: 100%

Question: What about the residual activity [31] of the same molecule?
Answer: 48%

Question: And the residual activity [32]?
Answer: 100%

Question: And the residual activity [33]?
Answer: 100%

Question: What about the residual activity [34] of the same molecule?
Answer: 100%

Question: What about the residual activity [35] of the same molecule?
Answer: 100%

Question: What about the residual activity [36] of the same molecule?
Answer: 100%

Question: And the residual activity [37]?
Answer: 100%

Question: And the inhibition [38]?
Answer: 0.711%

Question: What about the residual activity [39] of the same molecule?
Answer: 100%

Question: What about the residual activity [40] of the same molecule?
Answer: 100%

Question: What about the residual activity [41] of the same molecule?
Answer: 100%

Question: What about the residual activity [42] of the same molecule?
Answer: 89%

Question: And the residual activity [43]?
Answer: 100%

Question: And the residual activity [44]?
Answer: 100%

Question: What about the residual activity [45] of the same molecule?
Answer: 100%

Question: With `CC(=O)c1c(NS(C)(=O)=O)c2cc(-c3ccc(Cl)cc3)c(-c3ccc(Cl)cc3Cl)nc2n(C)c1=O` [MRL-CB1-NC] as the molecule, how does the residual activity [1] read?
Answer: 100%

Question: And the residual activity [2]?
Answer: 100%

Question: And the residual activity [3]?
Answer: 79%

Question: And the residual activity [4]?
Answer: 76%

Question: What about the residual activity [5] of the same molecule?
Answer: 100%

Question: And the residual activity [6]?
Answer: 70%

Question: What about the residual activity [7] of the same molecule?
Answer: 80%

Question: What about the residual activity [8] of the same molecule?
Answer: 97%

Question: And the residual activity [9]?
Answer: 100%

Question: What about the residual activity [10] of the same molecule?
Answer: 100%

Question: And the residual activity [11]?
Answer: 94%

Question: And the residual activity [12]?
Answer: 100%

Question: And the residual activity [13]?
Answer: 100%

Question: And the residual activity [14]?
Answer: 63%

Question: What about the residual activity [15] of the same molecule?
Answer: 100%

Question: And the residual activity [16]?
Answer: 100%

Question: What about the residual activity [17] of the same molecule?
Answer: 91%

Question: What about the residual activity [18] of the same molecule?
Answer: 100%

Question: What about the residual activity [19] of the same molecule?
Answer: 96%

Question: And the residual activity [20]?
Answer: 90%

Question: And the residual activity [21]?
Answer: 100%

Question: And the residual activity [22]?
Answer: 100%

Question: And the residual activity [23]?
Answer: 96%

Question: And the residual activity [24]?
Answer: 100%

Question: And the residual activity [25]?
Answer: 91%

Question: What about the residual activity [26] of the same molecule?
Answer: 96%

Question: And the residual activity [27]?
Answer: 100%

Question: What about the residual activity [28] of the same molecule?
Answer: 91%

Question: And the residual activity [29]?
Answer: 100%

Question: And the residual activity [30]?
Answer: 100%

Question: What about the residual activity [31] of the same molecule?
Answer: 100%

Question: And the residual activity [32]?
Answer: 95%

Question: What about the residual activity [33] of the same molecule?
Answer: 77%

Question: What about the residual activity [34] of the same molecule?
Answer: 100%

Question: And the residual activity [35]?
Answer: 99%

Question: And the residual activity [36]?
Answer: 100%

Question: And the residual activity [37]?
Answer: 100%

Question: And the inhibition [38]?
Answer: 16.2%

Question: And the residual activity [39]?
Answer: 100%

Question: And the residual activity [40]?
Answer: 92%

Question: And the residual activity [41]?
Answer: 95%

Question: What about the residual activity [42] of the same molecule?
Answer: 93%

Question: And the residual activity [43]?
Answer: 100%

Question: And the residual activity [44]?
Answer: 100%

Question: What about the residual activity [45] of the same molecule?
Answer: 100%
